Experimental data from patent US9493836B2, “Method for diagnosing hematological disorders” (UNIVERSITE FRANCOIS RABELAIS DE TOURS, priority 2010, dated 2016).
“Also recorded” adds a separate entry of the source.

Legend:
[1] = test system: AML sample; experiment: In vitro treatment of an AML sample with a demethylating agent; expression level of genes SEQ ID NO: 1-24 by qRT-PCR (oxydogram); type: cell-based, human; conditions: AML sample of one patient treated in vitro, compared with same untreated AML sample (FIG. 8)
Source text: Three micrograms of total RNA from each sample were reverse transcribed using the SuperScript® VILO™ cDNA Synthesis kit (Invitrogen) according to the protocol of the supplier. The relative quantification of gene expression was done by real-time PCR on the LightCycler® 480 microwell plate-based cycler platform (Roche Applied Science) using Universal ProbeLibrary assays designed with the ProbeFinder software (Roche Applied Science, www.roche-applied-science.com/sis/rtper/upl/ezhome.html). Primers were purchased from Invitrogen and Universal ProbeLibrary probes from Roche Applied Science. The nucleotide sequences of the primers and probes of each target are shown in Table A. All targets were concomitantly analyzed. qRT-PCR reactions were carried out in a total volume of 10 μL on 20 ng of cDNA using LightCycler® 480 Probes Master (Roche Applied Science). The LightCycler® 480 was programmed to an initial denaturation (95° C., 10 min) following by 45 cycles of 10 sec at 95° C., 30 sec at 60° C., 1 sec at 72° C. and a final cooling step at 40° C. for 10 sec. All reactions were run in triplicate, and average values were used for quantification. Results were analyzed by the relative quantification method (ΔΔCT=ΔCTpatient−ΔCTreference) using the Cycle threshold (CT) values determined with the LightCycler® 480 software (release 1.5.0) from Roche Applied Science. […]

[2] = test system: AML and high grade MDS; conditions: background statement; cited from earlier work

SMILES | modulation of the expression level (ratio) of the genes SEQ ID NO: 1-24 [1] | share of AML and high grade MDS sensitive to the agents' effects [2]
Nc1ncn([C@@H]2O[C@H](CO)[C@@H](O)[C@H]2O)c(=O)n1 [azacytidine, 5-azacytidine] | can modulate the expression ratio of the genes SEQ ID NO: 1-24; also recorded: modify the expression level of the genes | about 30%
Nc1ncn([C@H]2C[C@H](O)[C@@H](CO)O2)c(=O)n1 [decitabine, 5-azadeoxycytidine] |  | about 30%
